Measured values as given in US20230301968A1 (ZEPHAPHARM LTD, priority 2020, published 2023).

How the values were obtained:
CYP2D6 = molecular target: T1, CYP2D6 (Homo sapiens, UniProt P10635); assay: Cytochrome P450 reaction phenotyping, recombinant CYP2D6; assay type: in vitro ADME
T1 construct: purchased
Procedure: (§1) The amount of test compound remaining at each time point was analysed by LC-MS/MS. Incubations in control recombinant enzymes were also performed to assess non-enzymatic mediated stability.
(§2) Incubations were also performed using control Bactosomes™ (no cytochrome P450 enzymes present) to reveal any non-enzymatic degradation. Control compounds known to be metabolised specifically by each P450 isoform were included. All incubations were performed singularly for each test compound. […] The reactions were stopped by transferring an aliquot of incubate to quench solvent at the appropriate time points, in a 1:3 ratio. The termination plates were centrifuged at 3,000 rpm for 20 min at 4° C. to precipitate the protein. Following protein precipitation, the sample supernatants were analysed using LC-MS/MS, along with internal standard (1:1 supernatant to internal standard).
(§3) Following correction for any loss in the incubations with the control Bactosomes™, from a plot of In peak area ratio (compound peak area/internal standard peak area) against time, the gradient of the line was determined. Subsequently, half-life (t½) was calculated using the equations below: […]

[1] = Metabolic stability in human liver microsomes with or without CYP1A2 inhibitor furafylline; conditions: human, microsomes
Procedure: (§4) The amount of test compound remaining at each time point was analysed by LC-MS/MS. An incubation in the absence of NADPH was also performed to assess non-CYP mediated stability.
(§5) In the pre-screen assay, […] 0.1 M phosphate buffer pH 7.4 (final substrate concentration 1 µM) were pre-incubated at 37° C. prior to the addition of NADPH (final concentration 1 mM) to initiate the reaction. A minus cofactor control incubation was included for each compound tested where 0.1 M phosphate buffer pH 7.4 was added instead of NADPH (minus NADPH). […] A minus cofactor control incubation was included for each compound tested where 0.1 M phosphate buffer pH 7.4 was added instead of cofactor (minus NADPH). […] The reactions were stopped by transferring an aliquot of incubate to acetonitrile at the appropriate time points, in a 1:3 ratio. The termination plates were centrifuged at 3,000 rpm for 20 min at 4° C. to precipitate the protein. Following protein precipitation, the sample supernatants were analysed using LC-MS/MS, along with internal standard (1:1 supernatant to internal standard).
(§6) From a plot of In peak area ratio (compound peak area/internal standard peak area) against time, the gradient of the line was determined. Subsequently, half-life and intrinsic clearance were calculated using the equations below: […]

CYP1A2 = assay: as above; conditions: human, microsomes; for microsomal CLint at 1 µM: pH 7.4, CLint
Procedure: as §4, §5, §6

human liver microsomes = assay: as above; conditions: 10 µM furafylline versus no inhibitor
Procedure: as §4, §5, §6

CYP2B6 = molecular target: T2, CYP2B6 (Homo sapiens, UniProt P20813); assay: Cytochrome P450 reaction phenotyping, recombinant CYP2B6; assay type: in vitro ADME
T2 construct: purchased
T2 sequence (P20813 1-491): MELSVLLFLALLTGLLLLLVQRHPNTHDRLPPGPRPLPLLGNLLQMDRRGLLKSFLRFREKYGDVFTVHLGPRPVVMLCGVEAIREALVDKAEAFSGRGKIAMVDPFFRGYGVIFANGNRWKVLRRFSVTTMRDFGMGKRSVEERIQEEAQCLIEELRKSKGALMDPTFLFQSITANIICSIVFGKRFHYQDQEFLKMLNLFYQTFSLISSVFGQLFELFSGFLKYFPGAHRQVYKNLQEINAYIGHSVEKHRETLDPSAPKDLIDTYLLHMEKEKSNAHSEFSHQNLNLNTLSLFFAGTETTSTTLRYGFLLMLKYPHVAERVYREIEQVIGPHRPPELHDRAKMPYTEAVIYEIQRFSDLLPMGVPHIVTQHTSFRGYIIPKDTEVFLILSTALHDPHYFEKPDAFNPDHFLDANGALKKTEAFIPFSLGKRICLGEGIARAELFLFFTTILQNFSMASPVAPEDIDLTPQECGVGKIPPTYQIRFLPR
Procedure: as §1, §2, §3

T1 sequence (P10635 whole entry): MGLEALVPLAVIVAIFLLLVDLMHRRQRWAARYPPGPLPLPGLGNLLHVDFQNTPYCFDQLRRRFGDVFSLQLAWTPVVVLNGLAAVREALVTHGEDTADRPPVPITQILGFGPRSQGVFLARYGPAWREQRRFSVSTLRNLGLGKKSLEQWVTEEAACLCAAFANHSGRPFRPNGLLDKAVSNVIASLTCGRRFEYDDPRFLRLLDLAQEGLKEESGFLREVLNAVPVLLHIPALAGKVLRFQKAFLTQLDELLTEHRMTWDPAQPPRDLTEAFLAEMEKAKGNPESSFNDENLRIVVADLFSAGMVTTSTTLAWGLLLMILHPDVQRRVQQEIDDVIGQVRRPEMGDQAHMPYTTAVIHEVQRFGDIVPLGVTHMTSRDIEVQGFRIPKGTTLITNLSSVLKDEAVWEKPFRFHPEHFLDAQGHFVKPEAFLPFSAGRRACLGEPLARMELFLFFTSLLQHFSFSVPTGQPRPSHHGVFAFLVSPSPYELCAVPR

**Q.** With `COC(=O)Nc1nc2cc(C(=O)c3ccc(F)cc3)ccc2[nH]1` [Flubendazole, methyl N-[6-(4-fluorobenzoyl)-1H-benzimidazol-2-yl]carbamate] as the compound, how does the t½ (CYP2D6; 1 µM substrate, recombinant CYP2D6, NADPH) read?
**A.** Its t½ is 2.45 h.

**Q.** What about the “Compound Remaining (% of 0 min)” value (CYP2D6; CYP2D6, 0 min) of the same compound?
**A.** Its value is 100%.

**Q.** And the “Compound Remaining (% of 0 min)” value (CYP2D6; CYP2D6, 5 min)?
**A.** Its value is 93.1%.

**Q.** What about the “Compound Remaining (% of 0 min)” value (CYP2D6; CYP2D6, 15 min) of the same compound?
**A.** The value was 90.0%.

**Q.** And the “Compound Remaining (% of 0 min)” value (CYP2D6; CYP2D6, 30 min)?
**A.** Its value is 85.6%.

**Q.** What about the “Compound Remaining (% of 0 min)” value (CYP2D6; CYP2D6, 45 min) of the same compound?
**A.** The value was 78.9%.

**Q.** What about the half-life at 1 µM (CYP2D6; human, pH 7.4, 1 µM substrate, recombinant CYP2D6, NADPH, read-out: t½) of the same compound?
**A.** Its half-life at 1 µM is at least 2.45 h.

**Q.** What about the microsomal CLint at 1 µM ([1]; pH 7.4, CLint, 1 µM substrate, no inhibitor) of the same compound?
**A.** The microsomal CLint at 1 µM was 50.3 µL/min/mg.

**Q.** And the microsomal CLint at 1 µM ([1]; pH 7.4, intrinsic clearance (CLint), pre-screen assay, absence of inhibitor)?
**A.** Its microsomal CLint at 1 µM is 43.7 µL/min/mg.

**Q.** What about the half-life at 1 µM ([1]; pH 7.4, t½, 1 µM substrate, no inhibitor) of the same compound?
**A.** The half-life at 1 µM was 0.46 h.

**Q.** And the microsomal CLint at 1 µM (CYP1A2; 1 µM substrate, plus 3 µM furafylline)?
**A.** Its microsomal CLint at 1 µM is 14.6 µL/min/mg.

**Q.** And the microsomal CLint at 1 µM (CYP1A2; 1 µM substrate, plus 10 µM furafylline)?
**A.** The microsomal CLint at 1 µM was 3.52 µL/min/mg.

**Q.** And the microsomal CLint at 1 µM (CYP1A2; 1 µM substrate, plus 30 µM furafylline)?
**A.** Its microsomal CLint at 1 µM is 5.39 µL/min/mg.

**Q.** What about the half-life at 1 µM (CYP1A2; pH 7.4, half-life, 1 µM flubendazole, 10 µM furafylline) of the same compound?
**A.** The half-life at 1 µM was 6.6 h.

**Q.** And the half-life at 1 µM (CYP1A2; pH 7.4, t½, 1 µM substrate, plus 3 µM furafylline)?
**A.** The half-life at 1 µM was 1.58 h.

**Q.** And the half-life at 1 µM (CYP1A2; pH 7.4, t½, 1 µM substrate, plus 10 µM furafylline)?
**A.** Its half-life at 1 µM is 6.57 h.

**Q.** What about the half-life at 1 µM (CYP1A2; pH 7.4, t½, 1 µM substrate, plus 30 µM furafylline) of the same compound?
**A.** Its half-life at 1 µM is 4.28 h.

**Q.** What about the increase in half-life (human liver microsomes) of the same compound?
**A.** The increase in half-life was over 14 times.

**Q.** And the “Compound Remaining (% of 0 min)” value (CYP2B6; CYP2B6, 0 min)?
**A.** The value was 100%.

**Q.** What about the “Compound Remaining (% of 0 min)” value (CYP2B6; CYP2B6, 5 min) of the same compound?
**A.** The value was 96.5%.

**Q.** What about the “Compound Remaining (% of 0 min)” value (CYP2B6; CYP2B6, 15 min) of the same compound?
**A.** The value was 95.8%.

**Q.** And the “Compound Remaining (% of 0 min)” value (CYP2B6; CYP2B6, 30 min)?
**A.** The value was 97.8%.

**Q.** What about the “Compound Remaining (% of 0 min)” value (CYP2B6; CYP2B6, 45 min) of the same compound?
**A.** The value was 104%.

**Q.** And the half-life at 1 µM (CYP2B6; human, pH 7.4, 1 µM substrate, recombinant CYP2B6, NADPH, minus value = not metabolised, read-out: t½)?
**A.** The half-life at 1 µM was at least 2.45 h.
